Measurements taken from patent US20260174867A1, “REDUCTION OF ADIPOSE TISSUE” (LEIOS THERAPEUTICS, INC., priority 2023, published 2026).

Assays:
human subjects = settings: cited from earlier work
fat tissue = experiment: Propylene glycol as co-solvent injected with polidocanol; format: in vivo
inguinal fat pad = experiment: Inguinal fat pad mass after a single treatment of polidocanol; format: in vivo; settings: for reduction in inguinal fat pad mass: day 28 after a single treatment
Description: For example, reductions in inguinal fat pad mass of 15% were found at day 28 after a single treatment of polidocanol at doses of 0.5% and 1.25%. […] Thus, in embodiments, the polidocanol is administered approximately once per month and/or at concentrations less than about 2.0%. The treatment may employ about 0.1 to 0.3 mL (e.g. 0.2 mL) of a polidocanol at a concentration provided herein. In embodiments, the polidocanol is a concentration of from about 0.5% and 1.25%. The administration may be via injection. In embodiments, the injection is at a spacing of about 0.2 to 0.8 cm apart across the inguinal fat pad. Thus, in embodiments, the polidocanol is administered approximately once per month and/or at concentrations less than 2.0%. The treatment may employ 0.1 to 0.3 mL (e.g., 0.2 mL) of a polidocanol at a concentration provided herein. In embodiments, the polidocanol is a concentration of from 0.5% and 1.25%. The administration may be via injection. In embodiments, the injection is at a spacing of 0.2 to 0.8 cm apart across the inguinal fat pad. In embodiments, the injection is at a spacing of about 0.5 cm apart across the inguinal fat pad.

[1] = Kybella Label, spontaneous and elicited AEs, 1-week post-injection

C[C@H](CCC(=O)O)[C@H]1CC[C@H]2[C@@H]3CC[C@@H]4C[C@H](O)CC[C@]4(C)[C@H]3C[C@H](O)[C@]12C [Kybella, deoxycholic acid]
AE Proportions Post Treatment: Anesthesia (Numbness) (human subjects; [1]): 66% | AE Proportions Post Treatment: Bruising (human subjects; [1]): 72% | AE Proportions Post Treatment: Edema/Swelling (human subjects; [1]): 87% | AE Proportions Post Treatment: Erythema (human subjects; [1]): 27% | AE Proportions Post Treatment: Induration (human subjects; [1]): 23% | AE Proportions Post Treatment: Nerve Injury (human subjects; [1]): 4% | AE Proportions Post Treatment: Nodule (human subjects; [1]): 13% | AE Proportions Post Treatment: Pain (human subjects; [1]): 70% | AE Proportions Post Treatment: Paresthesia (human subjects; [1]): 14% | AE Proportions Post Treatment: Pruritis (human subjects; [1]): 12% | Injection site adverse events lasting >30 days: Edema/Swelling (human subjects; Kybella Label): 20% | Injection site adverse events lasting >30 days: Induration (human subjects; Kybella Label): 13% | Injection site adverse events lasting >30 days: Injection Site Pain (human subjects; Kybella Label): 16% | Injection site adverse events lasting >30 days: Numbness (human subjects; Kybella Label): 42% | injection-site adverse events (swelling/edema, bruising, pain) per treatment session (human subjects; compared to placebo, FIGS. 9A and 9B): significantly higher percentage of subjects exhibited an adverse reaction | of said subjects, injection related side effect which lasts for more than 30 days (human subjects; subcutaneous injection): up to 42% | subjects exhibiting an injection related side effect (human subjects; subcutaneous injection): ≤ 87%

CC(O)CO (centres unmarked) [propylene glycol]
irritation when injected with polidocanol (fat tissue): non-irritating | patchy and incomplete fat tissue necrosis relative to the absence of co-solvent (fat tissue): reduced amount of patchy and incomplete fat tissue necrosis

polidocanol
reduction in inguinal fat pad mass (inguinal fat pad; concentration 2.0%): 10% | reduction in inguinal fat pad mass (inguinal fat pad; dose 0.5%): 15% | reduction in inguinal fat pad mass (inguinal fat pad; dose 1.25%): 15% | visible change of inguinal fat pad / body contour (inguinal fat pad; in vivo): externally visible reduction in inguinal fat pad fullness
